Assay results published in patent publication US11820773B2, “Tricyclic compounds” (ALIGOS THERAPEUTICS, INC., priority 2020, dated 2023).
Counter-ions that a name gives are not always drawn.

tested on: HBV; test: HBV-DNA antiviral assay using HepG2.117 cells (intracellular HBV DNA by qPCR); format: cell-based, genotype D HBV; settings: HBV DNA inhibition, 3 days incubation, 2% DMSO
Procedure, shortened: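 HepG2.117 cells (stable genotype D HBV, Tet-off) seeded without doxycycline, treated next day with 9-point 4-fold dilutions in 2% DMSO for 3 days at 37° C. Intracellular HBV DNA quantified by qPCR against a standard curve; viability by CellTiter-Glo ATP. EC50, EC90, CC50 from variable-slope dose-response fits versus DMSO control.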

Structure (SMILES)	EC50
CNc1onc2cc(-n3c(=O)c4c(n5ncc(Cc6ccccc6)c35)CN(C(=O)c3ccc(Br)c(Cl)c3)CC4)ccc12 [Compound 6, 5-benzyl-12-(4-bromo-3-chloro-benzoyl)-7-[3-(methylamino)-2,1-benzoxazol-6-yl]-2,3,7,12-tetrazatricyclo[7.4.0.0^2,6]trideca-1(9),3,5-trien-8-one]	< 50 nM

same assay, conditions: Hepatitis B virus, 72 h, HBV DNA inhibition, 3 days incubation, 2% DMSO

Structure (SMILES)	EC50
C[C@@H]1Cc2c(n3ncc(Cc4ccccc4)c3n(-c3ccc(-c4nc(=O)on4C)cc3)c2=O)CN1C(=O)c1ccc(Br)c(C(F)(F)F)c1 (stereo in doubt) [Compound 44a, 2-methyl-3-[4-[rac-(11R)-5-benzyl-12-[4-bromo-3-(trifluoromethyl)benzoyl]-11-methyl-8-oxo-2,3,7,12-tetrazatricyclo[7.4.0.0^2,6]trideca-1(9),3,5-trien-7-yl]phenyl]-1,2,4-oxadiazol-5-one]	< 50 nM
Cc1nnc(-c2ccc(-n3c(=O)c4c(n5ncc(CC(C)C)c35)CN(C(=O)c3ccc(Br)c(C(F)(F)F)c3)[C@H](C)C4)cc2)[nH]1 (stereo in doubt) [Compound 59a, rac-(11R)-12-[4-bromo-3-(trifluoromethyl)benzoyl]-5-isobutyl-11-methyl-7-[4-(5-methyl-4H-1,2,4-triazol-3-yl)phenyl]-2,3,7,12-tetrazatricyclo[7.4.0.0^2,6]trideca-1(9),3,5-trien-8-one]	< 50 nM
Cc1nnc(-c2ccc(-n3c(=O)c4c(n5ncc(Cc6ccccc6)c35)CN(C(=O)c3ccc(Br)c(Cl)c3)CC4)cc2)n1C [Compound 31, 5-benzyl-12-(4-bromo-3-chloro-benzoyl)-7-[4-(4,5-dimethyl-1,2,4-triazol-3-yl)phenyl]-2,3,7,12-tetrazatricyclo[7.4.0.0^2,6]trideca-1(9),3,5-trien-8-one]	< 50 nM
CC(C)Cc1cnn2c3c(c(=O)n(-c4ccc(-c5nncn5C)cc4)c12)C[C@@H](C)N(C(=O)c1ccc(Br)c(Cl)c1)C3 (stereo in doubt) [Compound 68a, rac-(11R)-12-(4-bromo-3-chloro-benzoyl)-5-isobutyl-11-methyl-7-[4-(4-methyl-1,2,4-triazol-3-yl)phenyl]-2,3,7,12-tetrazatricyclo[7.4.0.0^2,6]trideca-1(9),3,5-trien-8-one]	< 50 nM
CC(C)Cc1cnn2c3c(c(=O)n(-c4ccc(-c5nncn5C)cc4)c12)C[C@H](C)N(C(=O)c1ccc(Br)c(Cl)c1)C3 (stereo in doubt) [Compound 68b, rac-(11S)-12-(4-bromo-3-chloro-benzoyl)-5-isobutyl-11-methyl-7-[4-(4-methyl-1,2,4-triazol-3-yl)phenyl]-2,3,7,12-tetrazatricyclo[7.4.0.0^2,6]trideca-1(9),3,5-trien-8-one]	50 to 500 nM
CNC(=O)c1cnc(-n2c(=O)c3c(n4ncc(Cc5ccccc5)c24)CN(C(=O)c2ccc(Br)c(C(F)(F)F)c2)[C@@H](C)C3)cn1 (stereo in doubt) [Compound 73b, N-methyl-5-[rac-(11S)-5-benzyl-12-[4-bromo-3-(trifluoromethyl)benzoyl]-11-methyl-8-oxo-2,3,7,12-tetrazatricyclo[7.4.0.0^2,6]trideca-1(9),3,5-trien-7-yl]pyrazine-2-carboxamide]	< 50 nM
CN1Cc2cc(-n3c(=O)c4c(n5ncc(Cc6ccccc6)c35)CN(C(=O)c3ccc(Br)c(Cl)c3)CC4)ccc2C1=O [Compound 15, 5-benzyl-12-(4-bromo-3-chloro-benzoyl)-7-(2-methyl-1-oxo-isoindolin-5-yl)-2,3,7,12-tetrazatricyclo[7.4.0.0^2,6]trideca-1(9),3,5-trien-8-one]	< 50 nM
Cc1nn[nH]c1-c1ccc(-n2c(=O)c3c(n4ncc(CC5CC5)c24)CN(C(=O)c2ccc(Br)c(C(F)(F)F)c2)[C@H](C)C3)cc1 (stereo in doubt) [Compound 75a, rac-(11R)-12-[4-bromo-3-(trifluoromethyl)benzoyl]-5-(cyclopropylmethyl)-11-methyl-7-[4-(4-methyl-1H-triazol-5-yl)phenyl]-2,3,7,12-tetrazatricyclo[7.4.0.0^2,6]trideca-1(9),3,5-trien-8-one]	< 50 nM
C#CCc1cnn2c3c(c(=O)n(-c4ccc(C(=O)NC)cc4)c12)C[C@H](C)N(C(=O)c1ccc(Br)c(C(F)(F)F)c1)C3 (stereo in doubt) [Compound 78b, N-methyl-4-[rac-(11S)-12-[4-bromo-3-(trifluoromethyl)benzoyl]-11-methyl-8-oxo-5-prop-2-ynyl-2,3,7,12-tetrazatricyclo[7.4.0.0^2,6]trideca-1 (9),3,5-trien-7-yl]benzamide]	50 to 500 nM
CC(C)Cc1cnn2c3c(c(=O)n(-c4ccc5c(c4)nnn5C)c12)C[C@@H](C)N(C(=O)c1ccc(Br)c(C(F)(F)F)c1)C3 (stereo in doubt) [Compound 95a, rac-(11R)-12-[4-bromo-3-(trifluoromethyl)benzoyl]-5-isobutyl-11-methyl-7-(1-methylbenzotriazol-5-yl)-2,3,7,12-tetrazatricyclo[7.4.0.0^2,6]trideca-1(9),3,5-trien-8-one]	< 50 nM
C[C@H]1Cc2c(n3ncc(Cc4ccccc4)c3n(-c3ccc(-c4nn(C)c(=O)[nH]4)cc3)c2=O)CN1C(=O)c1ccc(Br)c(C(F)(F)F)c1 (stereo in doubt) [Compound 82b, rac-(11S)-5-benzyl-12-[4-bromo-3-(trifluoromethyl)benzoyl]-11-methyl-7-[4-(1-methyl-5-oxo-4H-1,2,4-triazol-3-yl)phenyl]-2,3,7,12-tetrazatricyclo[7.4.0.0^2,6]trideca-1(9),3,5-trien-8-one]	50 to 500 nM
C[C@@H]1Cc2c(n3ncc(Cc4ccccc4)c3n(-c3ccc(-n4nnnc4C(F)(F)F)cc3)c2=O)CN1C(=O)c1ccc(Br)c(C(F)(F)F)c1 (stereo in doubt) [Compound 92a, rac-(11R)-5-benzyl-12-[4-bromo-3-(trifluoromethyl)benzoyl]-11-methyl-7-[4-[5-(trifluoromethyl)tetrazol-1-yl]phenyl]-2,3,7,12-tetrazatricyclo[7.4.0.0^2,6]trideca-1(9),3,5-trien-8-one]	< 50 nM
CNC(=O)c1ccc(-n2c(=O)c3c(n4ncc(Cc5ccccc5)c24)CN(C(=O)c2ccc(Br)c(C(F)(F)F)c2)[C@H](C2CC2)C3)cc1 (stereo in doubt) [Compound 104b, N-methyl-4-[rac-(11S)-5-benzyl-12-[4-bromo-3-(trifluoromethyl)benzoyl]-11-cyclopropyl-8-oxo-2,3,7,12-tetrazatricyclo[7.4.0.0^2,6]trideca-1 (9),3,5-trien-7-yl]benzamide]	< 50 nM
C[C@@H]1Cc2c(n3ncc(Cc4ccccc4)c3n(-c3ccc(-c4nnc(C(F)(F)F)[nH]4)cc3)c2=O)CN1C(=O)c1ccc(Br)c(C(F)(F)F)c1 (stereo in doubt) [Compound 74a, rac-(11R)-5-benzyl-12-[4-bromo-3-(trifluoromethyl)benzoyl]-11-methyl-7-[4-[5-(trifluoromethyl)-4H-1,2,4-triazol-3-yl]phenyl]-2,3,7,12-tetrazatricyclo[7.4.0.0^2,6]trideca-1(9),3,5-trien-8-one]	< 50 nM
C[C@@H]1Cc2c(n3ncc(Cc4ccccc4)c3n(-c3ccc(-c4ncnn4C)cc3)c2=O)CN1C(=O)c1ccc(Br)c(C(F)(F)F)c1 (stereo in doubt) [Compound 49a, rac-(11R)-5-benzyl-12-[4-bromo-3-(trifluoromethyl)benzoyl]-11-methyl-7-[4-(2-methyl-1,2,4-triazol-3-yl)phenyl]-2,3,7,12-tetrazatricyclo[7.4.0.0^2,6]trideca-1(9),3,5-trien-8-one]	< 50 nM
Cc1nnc(-c2ccc(-n3c(=O)c4c(n5ncc(CC(C)C)c35)CN(C(=O)c3ccc(Cl)c(C(F)(F)F)c3)[C@H](C)C4)cc2)[nH]1 (stereo in doubt) [Compound 65a, rac-(11R)-12-[4-chloro-3-(trifluoromethyl)benzoyl]-5-isobutyl-11-methyl-7-[4-(5-methyl-4H-1,2,4-triazol-3-yl)phenyl]-2,3,7,12-tetrazatricyclo[7.4.0.0^2,6]trideca-1(9),3,5-trien-8-one]	< 50 nM
Cc1nnc(-c2ccc(-n3c(=O)c4c(n5ncc(Cc6ccccc6)c35)CN(C(=O)c3ccc(Br)c(C(F)(F)F)c3)[C@@H](C)C4)cc2)[nH]1 (stereo in doubt) [Compound 47b, rac-(11S)-5-benzyl-12-[4-bromo-3-(trifluoromethyl)benzoyl]-11-methyl-7-[4-(5-methyl-4H-1,2,4-triazol-3-yl)phenyl]-2,3,7,12-tetrazatricyclo[7.4.0.0^2,6]trideca-1(9),3,5-trien-8-one]	< 50 nM
CNc1nsc2cc(-n3c(=O)c4c(n5ncc(Cc6ccccc6)c35)CN(C(=O)c3ccc(Br)c(Cl)c3)CC4)ccc12 [Compound 5, 5-benzyl-12-(4-bromo-3-chloro-benzoyl)-7-[3-(methylamino)-1,2-benzothiazol-6-yl]-2,3,7,12-tetrazatricyclo[7.4.0.0^2,6]trideca-1(9),3,5-trien-8-one]	< 50 nM
CC(C)[C@@H](N)C(=O)OCN(C)C(=O)c1ccc(-n2c(=O)c3c(n4ncc(CC5CC5)c24)CN(C(=O)c2ccc(Br)c(C(F)(F)F)c2)[C@@H](C)C3)cc1 (racemic) [Compound 96, [[4-[(11SR)-12-[4-bromo-3-(trifluoromethyl)benzoyl]-5-(cyclopropylmethyl)-11-methyl-8-oxo-2,3,7,12-tetrazatricyclo[7.4.0.0^2,6]trideca-1(9),3,5-trien-7-yl]benzoyl]-methyl-amino]methyl (2R)-2-amino-3-methyl-butanoate; hydrochloride]	500 to 5000 nM
C[C@@H]1Cc2c(n3ncc(Cc4ccccc4)c3n(-c3ccc(-c4nncn4C)cc3)c2=O)CN1C(=O)c1ccc(Br)c(C(F)(F)F)c1 (stereo in doubt) [Compound 39a, rac-(11R)-5-benzyl-12-[4-bromo-3-(trifluoromethyl)benzoyl]-11-methyl-7-[4-(4-methyl-1,2,4-triazol-3-yl)phenyl]-2,3,7,12-tetrazatricyclo[7.4.0.0^2,6]trideca-1(9),3,5-trien-8-one]	< 50 nM
